# Read-outs that look alike come from different tables or passages of the source.
# Experiments:
# STAM mice [1] = experiment: STAM model: liver triglyceride content; format: in vivo
# Procedure: (§1) NASH-HCC (STAM™) Model. C57BL/6 (15-day-pregnant female) mice are obtained from Charles River Laboratories Japan (Kanagawa, Japan). Male pups are selected for the study. NASH is induced in male mice by a single subcutaneous injection of 200 μg streptozotocin (STZ, Sigma-Aldrich, USA) solution 2 days after birth, followed by feeding a HFD (57 kcal % fat, cat#: HFD32, CLEA Japan, Japan) beginning at 4 weeks of age. At 5 weeks of age, mice are divided into a control group and one or more treated group (generally 8 mice per group). Animals are sacrificed at 9 weeks of age, and biochemical, histological, and gene expression analyses are performed.
# (§2) During weeks 5-9 (starting at day 35±2), test compound is administered (generally orally) at various doses diluted to 10 mL/kg and according to various dosing protocols to treatment groups (8 mice each) while a second group (8 mice) is administered vehicle only. Animals are sacrificed at 9 weeks.
# Measurement of liver biochemistry—liver triglyceride content. Liver total lipid-extracts are obtained by Folch's method (Folch J. et al., J. Biol. Chem., 1957; 226:497). Liver samples are homogenized in chloroform-methanol (2:1, v/v) and incubated overnight at room temperature. After washing with chloroform-methanol-water (8:4:3, v/v/v), the extracts are evaporated to dryness, and dissolved in isopropanol. Liver triglyceride (TG) and cholesterol contents were measured by Triglyceride E-test and Cholesterol E-test (Wako Pure Chemical Industries, Japan), respectively. Extracts are diluted 2-fold in isopropanol when the triglyceride content exceeds the detection limit.
# (§3) Illustrative dose response test groups. Group 1-Normal. Eight normal mice are fed with a normal diet ad libitum without any treatment until 9 weeks of age. Group 2-Vehicle. Eight NASH mice are orally administered vehicle (0.5% w/v methylcellulose+0.2% Tween®80) in a volume of 10 mL/kg twice daily from 5 to 9 week of age. Group 3-solithromycin 5 mg/kg. Eight NASH mice are orally administered vehicle supplemented with solithromycin at a dose of 5 mg/kg in the morning and the vehicle in the evening (5 mg/kg/day) from 5 to 9 weeks of age. Group 4-solithromycin 10 mg/kg. Eight NASH mice are orally administered vehicle supplemented with solithromycin at a dose of 10 mg/kg twice daily (20 mg/kg/day) from 5 to 9 weeks of age. Group 5-solithromycin 25 mg/kg. Eight NASH mice are orally administered vehicle supplemented with solithromycin at a dose of 25 mg/kg twice daily (50 mg/kg/day) from 5 to 9 weeks of age. Group 6-solithromycin 50 mg/kg. Eight NASH mice are orally administered vehicle supplemented with solithromycin at a dose of 50 mg/kg once daily (50 mg/kg/day) from 5 to 9 weeks of age.
# STAM mice [2] = experiment: STAM model: HE staining, NAFLD Activity score; format: in vivo; conditions: for NAFLD Activity Score: 5-9 wks
# Procedure: as §1, §2
# Histopathological analyses. For HE staining, sections are cut from paraffin blocks of left lateral liver tissue prefixed in Bouin's solution and stained with Lillie-Mayer's Hematoxylin (Muto Pure Chemicals, Japan) and eosin solution (Wako Pure Chemical Industries). NAFLD Activity score (NAS) is calculated according to the criteria of Kleiner (Kleiner D E. et al., Hepatology, 2005; 41:1313). A NAS≧5 with steatosis and hepatocyte ballooning is generally considered diagnostic of NASH.
# as §3
# [3] = Phase 1 study in subjects with hepatic impairment: pharmacokinetics and protein binding; format: in vivo, humans; parameters: AUC(0-t): concentration or dose not given beside the values; conditions: for AUC0-t Geometric Mean Ratio (%) (test/reference) / AUC0-tau Geometric Mean Ratio (%) (test/reference) / Cmax Geometric Mean Ratio (%) (test/reference) / AUC(0-t) / AUC / Cmax: Day 5; for AUC(0-t) / AUC / Cmax / half-life: human, plasma
# Procedure: Safety and Pharmacokinetics of solithromycin in Subjects with Hepatic Impairment. The safety, pharmacokinetics (PK), and protein binding of solithromycin was evaluated in subjects with mild, moderate, and severe hepatic impairment compared to healthy subjects with normal hepatic function (matched for age, weight, and gender). The evaluation was performed in a Phase 1, open-label, multiple-dose study in subjects with mild (Child-Pugh Class A), moderate (Child-Pugh Class B), and severe (Child-Pugh Class C) hepatic impairment and healthy matched control subjects with normal hepatic function. All subjects received a once-daily dose of 800 mg on Day 1 followed by 400 mg on Days 2 through 5.
# PK parameters on Day 5 were compared between the hepatic impaired cohorts and the control group, and geometric mean ratios were calculated.
# [4] = Absorption, metabolism and excretion of orally administered solithromycin; format: in vivo; conditions: oral
# Text: Macrolide antibiotics, like solithromycin, are primarily metabolized and excreted through liver-dependent mechanisms; this study evaluated the safety and PK of solithromycin in patients with chronic liver disease. It has been observed that approximately 78% of orally administered solithromycin is absorbed. Less than 15% unchanged solithromycin is excreted in the feces. It has also been observed that ˜70% of orally administered solithromycin is metabolized and excreted by the liver. Accordingly, high liver concentrations are observed. No dosage adjustment is needed when administering solithromycin to patients with mild, moderate, or severe hepatic impairment.
smiles,measurement,setting,value
CC[C@H]1OC(=O)[C@@](C)(F)C(=O)[C@H](C)[C@@H](O[C@@H]2O[C@H](C)C[C@H](N(C)C)[C@H]2O)[C@](C)(OC)C[C@@H](C)C(=O)[C@H](C)[C@H]2N(CCCCn3cc(-c4cccc(N)c4)nn3)C(=O)O[C@]12C [solithromycin],Liver triglyceride,STAM mice [1]; 5 mg/kg q.d.,127.7 ± 62.3 mg/g liver
same,Liver triglyceride,STAM mice [1]; 10 mg/kg b.i.d.,161.8 ± 44.5 mg/g liver
same,Liver triglyceride,STAM mice [1]; 25 mg/kg b.i.d.,100.8 ± 35.3 mg/g liver
same,Liver triglyceride content compared to vehicle group,STAM mice [1]; any doses (Groups 3-6),no statistically significant differences
same,NAFLD Activity Score,"STAM mice [2]; 5 mg/kg q.d. oral, 5 mg/kg",no statistically significant difference
same,NAFLD Activity Score,"STAM mice [2]; 5 mg/kg q.d. oral, listed as Solithromycin, 5 mg/kg",4.8 ± 0.9
same,NAFLD Activity Score,"STAM mice [2]; 10 mg/kg b.i.d. oral, 10 mg/kg",significantly decreased
same,NAFLD Activity Score,"STAM mice [2]; 10 mg/kg b.i.d. oral, listed as Solithromycin, 10 mg/kg",3.3 ± 0.9
same,NAFLD Activity Score,"STAM mice [2]; 25 mg/kg b.i.d. oral, 25 mg/kg",significantly decreased
same,NAFLD Activity Score,"STAM mice [2]; 25 mg/kg b.i.d. oral, listed as Solithromycin, 25 mg/kg",2.9 ± 1.0
same,NAFLD Activity Score,"STAM mice [2]; 50 mg/kg q.d. oral, 50 mg/kg",significant reduction
same,NAFLD Activity Score,"STAM mice [2]; 50 mg/kg q.d. oral, listed as Solithromycin, 50 mg/kg",3.0 ± 0.9
same,Hepatocellular ballooning and inflammatory cell infiltration compared to vehicle group,STAM mice [2]; Groups 4-6,significant improvements
same,AUC0-t Geometric Mean Ratio (%) (test/reference),[3]; Mild versus Control,117.44%
same,AUC0-tau Geometric Mean Ratio (%) (test/reference),[3]; Mild versus Control,75.30%
same,Cmax Geometric Mean Ratio (%) (test/reference),[3]; Mild versus Control,121.08%
same,AUC0-t Geometric Mean Ratio (%) (test/reference),[3]; Moderate versus Control,117.83%
same,AUC0-tau Geometric Mean Ratio (%) (test/reference),[3]; Moderate versus Control,71.58%
same,Cmax Geometric Mean Ratio (%) (test/reference),[3]; Moderate versus Control,105.36%
same,AUC0-t Geometric Mean Ratio (%) (test/reference),[3]; Severe versus Control,109.95%
same,AUC0-tau Geometric Mean Ratio (%) (test/reference),[3]; Severe versus Control,58.86%
same,Cmax Geometric Mean Ratio (%) (test/reference),[3]; Severe versus Control,77.69%
same,Accumulation on Day 5,[3]; any of the hepatic impaired cohorts,No accumulation
same,AUC(0-t),"[3]; healthy control subjects, read-out: AUC0-t (Reference Group)",7550 ng·h/mL
same,AUC,"[3]; healthy control subjects, read-out: AUC0-tau (Reference Group)",10500 ng·h/mL
same,Cmax,"[3]; healthy control subjects, read-out: Cmax (Reference Group)",649 ng/mL
same,Cmax,"[3]; mild hepatic impairment, 800 mg Day 1, 400 mg Days 2-5, read-out: Cmax (Test Group)",786 ng/mL
same,AUC(0-t),"[3]; mild hepatic impairment, read-out: AUC0-t (Test Group)",8870 ng·h/mL
same,AUC,"[3]; mild hepatic impairment, read-out: AUC0-tau (Test Group)",7900 ng·h/mL
same,AUC(0-t),"[3]; moderate hepatic impairment, read-out: AUC0-t (Test Group)",8900 ng·h/mL
same,AUC,"[3]; moderate hepatic impairment, read-out: AUC0-tau (Test Group)",7510 ng·h/mL
same,Cmax,"[3]; moderate hepatic impairment, read-out: Cmax (Test Group)",684 ng/mL
same,AUC(0-t),"[3]; severe hepatic impairment, read-out: AUC0-t (Test Group)",8310 ng·h/mL
same,AUC,"[3]; severe hepatic impairment, read-out: AUC0-tau (Test Group)",6180 ng·h/mL
same,Cmax,"[3]; severe hepatic impairment, read-out: Cmax (Test Group)",504 ng/mL
same,half-life,[3]; control,8.9 h
same,half-life,[3]; mild hepatic impairment,10.2 h
same,half-life,[3]; moderate hepatic impairment,10.4 h
same,half-life,[3]; severe hepatic impairment,15.7 h
same,Mean plasma protein binding percentage at Day 5 Cmax,[3]; mild or moderate hepatic impairment vs control,not significantly affected
same,Mean plasma protein binding percentage at Day 5 Cmax,[3]; severe cohort vs control,slightly lower
same,Fraction of orally administered dose absorbed,[4],approximately 78%
same,Fraction of orally administered dose metabolized and excreted by the liver,[4],~70%
same,Unchanged drug excreted in the feces,[4],Less than 15%
